Data on seven compounds can be found in patent US9340590B2 (priority 2011, dated 2016).

Structures are written as SMILES. Like-named read-outs stand apart in the source and are kept apart here. Positions of bridges follow the written chain, without caps; N, C: chain ends. Non-standard residues stand in square brackets, D forms with d. Residues, ends and D or L forms follow the SMILES beside them. 1Nal = N[C@@H](Cc1cccc2ccccc12)C(=O)O; 2Nal = N[C@@H](Cc1ccc2ccccc2c1)C(=O)O

Test in all cases: cell-based
For assay [1], the target named is hNav1.3 (Homo sapiens, UniProt Q9NY46). The conditions noted are these: IonWorks Quattro, read-out: IWQ Use Nav1.3. A general note: The patch-clamp technique gives a direct electrical read-out from membranes.
For assay [2], the target named is hNav1.7 (Homo sapiens, UniProt Q15858). It is filed as cell-based. The settings on record: IonWorks Quattro, read-out: IWQ Use Nav1.7.
Assay [3] deals with hNav1.5 (Homo sapiens, UniProt Q14524). The conditions noted are these: IonWorks Quattro, read-out: IWQ Use Nav1.5.

Sequence of hNav1.7 (Q15858 whole entry, looked up): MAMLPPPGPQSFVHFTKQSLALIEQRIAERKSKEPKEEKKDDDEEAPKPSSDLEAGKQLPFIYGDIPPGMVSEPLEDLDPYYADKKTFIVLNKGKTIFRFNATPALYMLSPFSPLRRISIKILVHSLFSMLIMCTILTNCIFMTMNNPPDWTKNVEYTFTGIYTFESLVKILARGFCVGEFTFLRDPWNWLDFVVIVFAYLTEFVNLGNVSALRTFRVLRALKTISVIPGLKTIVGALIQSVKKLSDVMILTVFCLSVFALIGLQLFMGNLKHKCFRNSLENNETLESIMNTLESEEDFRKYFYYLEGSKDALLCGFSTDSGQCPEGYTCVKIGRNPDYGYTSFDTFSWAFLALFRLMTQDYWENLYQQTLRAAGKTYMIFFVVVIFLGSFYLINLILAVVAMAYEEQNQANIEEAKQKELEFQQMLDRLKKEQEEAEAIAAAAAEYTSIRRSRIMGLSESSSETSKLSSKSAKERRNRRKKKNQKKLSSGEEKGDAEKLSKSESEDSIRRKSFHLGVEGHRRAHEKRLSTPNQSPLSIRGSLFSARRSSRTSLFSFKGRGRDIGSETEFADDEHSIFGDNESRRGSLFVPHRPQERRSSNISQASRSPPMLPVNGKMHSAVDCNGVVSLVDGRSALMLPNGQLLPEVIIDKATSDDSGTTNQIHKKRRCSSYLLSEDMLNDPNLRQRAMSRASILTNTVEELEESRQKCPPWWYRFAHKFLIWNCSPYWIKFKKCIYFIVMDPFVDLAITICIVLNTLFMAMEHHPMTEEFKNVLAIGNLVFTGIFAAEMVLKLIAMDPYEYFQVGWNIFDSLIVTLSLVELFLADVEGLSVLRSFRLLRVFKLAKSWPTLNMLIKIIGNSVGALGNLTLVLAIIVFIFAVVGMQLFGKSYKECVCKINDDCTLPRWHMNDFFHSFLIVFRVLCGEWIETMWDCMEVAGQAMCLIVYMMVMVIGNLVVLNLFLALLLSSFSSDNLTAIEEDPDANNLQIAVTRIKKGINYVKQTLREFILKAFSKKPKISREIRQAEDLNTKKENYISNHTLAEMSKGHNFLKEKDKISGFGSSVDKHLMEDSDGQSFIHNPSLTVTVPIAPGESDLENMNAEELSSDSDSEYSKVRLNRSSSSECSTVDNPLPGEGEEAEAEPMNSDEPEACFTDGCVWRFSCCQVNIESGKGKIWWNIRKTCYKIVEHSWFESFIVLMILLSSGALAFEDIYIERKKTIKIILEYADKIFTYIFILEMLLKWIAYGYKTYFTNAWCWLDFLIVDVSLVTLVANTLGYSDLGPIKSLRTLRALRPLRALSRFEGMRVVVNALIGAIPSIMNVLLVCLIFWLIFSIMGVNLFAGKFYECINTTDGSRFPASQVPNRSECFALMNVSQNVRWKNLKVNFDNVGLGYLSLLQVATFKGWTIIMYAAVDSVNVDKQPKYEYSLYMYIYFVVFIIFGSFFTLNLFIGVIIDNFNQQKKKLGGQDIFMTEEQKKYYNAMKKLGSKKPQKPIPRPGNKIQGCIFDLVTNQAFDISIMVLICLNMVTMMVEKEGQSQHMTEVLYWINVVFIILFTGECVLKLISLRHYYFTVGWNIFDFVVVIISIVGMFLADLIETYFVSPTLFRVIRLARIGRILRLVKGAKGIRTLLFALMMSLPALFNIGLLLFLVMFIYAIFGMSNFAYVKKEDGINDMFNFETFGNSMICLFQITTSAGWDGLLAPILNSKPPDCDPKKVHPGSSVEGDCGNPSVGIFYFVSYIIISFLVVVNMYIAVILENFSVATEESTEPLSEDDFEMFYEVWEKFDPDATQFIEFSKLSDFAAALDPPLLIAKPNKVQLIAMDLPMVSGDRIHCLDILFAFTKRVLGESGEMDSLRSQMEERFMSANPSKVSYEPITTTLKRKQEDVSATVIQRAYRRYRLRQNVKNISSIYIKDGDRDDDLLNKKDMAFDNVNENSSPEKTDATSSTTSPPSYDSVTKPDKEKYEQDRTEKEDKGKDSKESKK
Sequence of hNav1.3 (Q9NY46 whole entry, looked up): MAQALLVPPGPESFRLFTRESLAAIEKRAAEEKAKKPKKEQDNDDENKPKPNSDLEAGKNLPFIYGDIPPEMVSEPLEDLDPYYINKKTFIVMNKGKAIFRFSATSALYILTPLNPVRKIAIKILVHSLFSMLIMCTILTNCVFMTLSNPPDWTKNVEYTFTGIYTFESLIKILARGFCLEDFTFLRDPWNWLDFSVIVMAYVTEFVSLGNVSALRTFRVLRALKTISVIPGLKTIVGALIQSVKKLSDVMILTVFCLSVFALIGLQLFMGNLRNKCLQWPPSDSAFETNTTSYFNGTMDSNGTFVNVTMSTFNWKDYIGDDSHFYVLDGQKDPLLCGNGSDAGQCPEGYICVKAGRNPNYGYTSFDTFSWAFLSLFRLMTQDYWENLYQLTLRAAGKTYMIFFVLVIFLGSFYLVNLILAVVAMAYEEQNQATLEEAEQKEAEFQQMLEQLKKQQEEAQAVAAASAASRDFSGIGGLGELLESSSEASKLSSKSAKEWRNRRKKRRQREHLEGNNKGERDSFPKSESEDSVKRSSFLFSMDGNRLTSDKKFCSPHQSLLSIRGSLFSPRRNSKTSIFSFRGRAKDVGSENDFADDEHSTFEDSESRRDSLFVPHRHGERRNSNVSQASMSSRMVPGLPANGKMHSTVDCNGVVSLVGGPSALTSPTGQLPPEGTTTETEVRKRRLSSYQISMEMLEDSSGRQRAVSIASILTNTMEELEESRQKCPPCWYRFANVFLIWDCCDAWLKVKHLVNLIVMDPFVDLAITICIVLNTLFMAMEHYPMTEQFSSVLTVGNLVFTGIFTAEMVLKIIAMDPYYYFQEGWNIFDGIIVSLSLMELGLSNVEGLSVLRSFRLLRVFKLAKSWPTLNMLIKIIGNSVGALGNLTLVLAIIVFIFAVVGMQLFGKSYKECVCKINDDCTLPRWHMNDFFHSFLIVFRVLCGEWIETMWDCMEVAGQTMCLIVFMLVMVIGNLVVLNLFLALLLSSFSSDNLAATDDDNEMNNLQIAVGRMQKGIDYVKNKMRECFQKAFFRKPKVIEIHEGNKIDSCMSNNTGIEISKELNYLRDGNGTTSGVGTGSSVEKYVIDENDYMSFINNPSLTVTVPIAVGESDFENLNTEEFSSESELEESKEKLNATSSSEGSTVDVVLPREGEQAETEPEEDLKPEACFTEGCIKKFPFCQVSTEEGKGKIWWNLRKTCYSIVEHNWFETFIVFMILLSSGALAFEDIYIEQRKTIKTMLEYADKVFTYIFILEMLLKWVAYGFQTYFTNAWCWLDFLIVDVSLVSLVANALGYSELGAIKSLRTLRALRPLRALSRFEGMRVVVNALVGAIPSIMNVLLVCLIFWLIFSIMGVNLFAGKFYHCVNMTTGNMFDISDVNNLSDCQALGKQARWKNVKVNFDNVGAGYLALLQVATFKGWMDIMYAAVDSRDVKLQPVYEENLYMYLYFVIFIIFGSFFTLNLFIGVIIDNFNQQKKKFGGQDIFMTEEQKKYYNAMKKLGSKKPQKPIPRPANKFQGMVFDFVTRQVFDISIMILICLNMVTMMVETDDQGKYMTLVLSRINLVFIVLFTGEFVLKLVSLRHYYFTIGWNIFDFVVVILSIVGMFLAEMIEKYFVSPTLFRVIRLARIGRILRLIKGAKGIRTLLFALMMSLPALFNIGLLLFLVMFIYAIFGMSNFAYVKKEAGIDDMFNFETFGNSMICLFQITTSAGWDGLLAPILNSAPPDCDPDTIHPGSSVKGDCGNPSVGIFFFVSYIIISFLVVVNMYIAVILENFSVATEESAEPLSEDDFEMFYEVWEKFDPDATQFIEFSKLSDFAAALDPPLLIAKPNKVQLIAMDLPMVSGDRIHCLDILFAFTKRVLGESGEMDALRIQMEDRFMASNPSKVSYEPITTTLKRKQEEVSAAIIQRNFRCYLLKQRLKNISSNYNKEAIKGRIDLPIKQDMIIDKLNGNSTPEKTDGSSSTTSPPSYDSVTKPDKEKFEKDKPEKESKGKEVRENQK

`CC[C@H](C)[C@@H]1NC(=O)[C@@H]2CSSC[C@@H]3NC(=O)[C@H](C(C)C)NC(=O)[C@H](CC(C)C)NC(=O)[C@H](CC(N)=O)NC(=O)[C@@H]4CCCN4C(=O)[C@H](CCCNC(=N)N)NC(=O)[C@H](CSSC[C@H](NC(=O)[C@@H](N)CC(=O)O)C(=O)N[C@@H](CC(C)C)C(=O)NCC(=O)N[C@@H](Cc4ccccc4)C(=O)N[C@@H](CCSC)C(=O)N[C@@H](CCCNC(=N)N)C(=O)N[C@@H](CCCCN)C(=O)N2)NC(=O)[C@H](CSSC[C@@H](C(=O)N[C@@H](CCCCN)C(=O)N[C@@H](Cc2ccc(O)cc2)C(=O)N[C@H](C(=O)N[C@@H](Cc2cccc4ccccc24)C(=O)N[C@@H](Cc2c[nH]c4ccccc24)C(N)=O)C(C)C)NC(=O)[C@H](Cc2c[nH]c4ccccc24)NC(=O)[C@H](CCCCN)NC(=O)[C@H](Cc2c[nH]cn2)NC(=O)[C@H]([C@@H](C)O)NC(=O)[C@H](CCCNC(=N)N)NC(=O)[C@H](CO)NC3=O)NC(=O)[C@H](CCCCN)NC(=O)[C@H](CC(=O)O)NC(=O)[C@H](CC(N)=O)NC(=O)[C@H](CC(=O)O)NC(=O)[C@@H]2CCCN2C1=O` [compound 138] (H-DCLGFMRKCIPDNDKCCRPNLVCSRTHKWCKYV[1Nal]W-NH2; disulfide 2-17, 9-23, 16-30): the IC50 turned out to be 70 nM in assay [1] (use-dependent block, hNav1.3); 130 nM in assay [2] (use-dependent block, hNav1.7); 2570 nM in assay [3] (use-dependent block, hNav1.5).

Regarding `CC[C@H](C)[C@@H]1NC(=O)[C@@H]2CSSC[C@@H]3NC(=O)[C@H](C(C)C)NC(=O)[C@H](CC(C)C)NC(=O)[C@H](CC(N)=O)NC(=O)[C@@H]4CCCN4C(=O)[C@H](CCCNC(=N)N)NC(=O)[C@H](CSSC[C@H](NC(=O)[C@@H](N)CC(=O)O)C(=O)N[C@@H](CC(C)C)C(=O)NCC(=O)N[C@@H](Cc4ccccc4)C(=O)N[C@@H](CCSC)C(=O)N[C@@H](CCCNC(=N)N)C(=O)N[C@@H](CCCCN)C(=O)N2)NC(=O)[C@H](CSSC[C@@H](C(=O)N[C@@H](CCCCN)C(=O)N[C@@H](Cc2ccc(O)cc2)C(=O)N[C@H](C(=O)N[C@@H](Cc2ccc4ccccc4c2)C(=O)N[C@@H](Cc2c[nH]c4ccccc24)C(N)=O)C(C)C)NC(=O)[C@H](Cc2c[nH]c4ccccc24)NC(=O)[C@H](CCCCN)NC(=O)[C@H](Cc2c[nH]cn2)NC(=O)[C@H]([C@@H](C)O)NC(=O)[C@H](CCCNC(=N)N)NC(=O)[C@H](CO)NC3=O)NC(=O)[C@H](CCCCN)NC(=O)[C@H](CC(=O)O)NC(=O)[C@H](CC(N)=O)NC(=O)[C@H](CC(=O)O)NC(=O)[C@@H]2CCCN2C1=O` [compound 139] (H-DCLGFMRKCIPDNDKCCRPNLVCSRTHKWCKYV[2Nal]W-NH2; disulfide 2-17, 9-23, 16-30), the IC50 in assay [1] (use-dependent block, hNav1.3) was 50 nM; in assay [2] (use-dependent block, hNav1.7), 110 nM; in assay [3] (use-dependent block, hNav1.5), 2120 nM.

With `CC[C@H](C)[C@@H]1NC(=O)[C@@H](NC(=O)[C@H](CCCCN)NC(=O)[C@H](CCCNC(=N)N)NC(=O)[C@H](CCSC)NC(=O)[C@H](Cc2ccccc2)NC(=O)CNC(=O)[C@H](CC(C)C)NC(=O)[C@H](C)NC(=O)[C@@H](N)CC(=O)O)CSSC[C@@H]2NC(=O)[C@H](C(C)C)NC(=O)[C@H](CC(C)C)NC(=O)[C@H](CC(N)=O)NC(=O)[C@@H]3CCCN3C(=O)[C@H](CCCNC(=N)N)NC(=O)[C@H](C)NC(=O)[C@H](CSSC[C@@H](C(=O)N[C@@H](CCCCN)C(=O)N[C@@H](Cc3ccc(O)cc3)C(=O)N[C@H](C(=O)N[C@@H](Cc3ccccc3)C(N)=O)C(C)C)NC(=O)[C@H](Cc3c[nH]c4ccccc34)NC(=O)[C@H](CCCCN)NC(=O)[C@H](Cc3c[nH]cn3)NC(=O)[C@H]([C@@H](C)O)NC(=O)[C@H](CCCNC(=N)N)NC(=O)[C@H](CO)NC2=O)NC(=O)[C@H](CCCCN)NC(=O)[C@H](CC(=O)O)NC(=O)[C@H](CC(N)=O)NC(=O)[C@H](CC(=O)O)NC(=O)[C@@H]2CCCN2C1=O` [compound 140] (H-DALGFMRKCIPDNDKCARPNLVCSRTHKWCKYVF-NH2; disulfide 9-23, 16-30), the IC50 was 790 nM in assay [1] (use-dependent block, hNav1.3); 2450 nM in assay [2] (use-dependent block, hNav1.7); 18900 nM in assay [3] (use-dependent block, hNav1.5).

`CC[C@H](C)[C@@H]1NC(=O)[C@@H]2CSSC[C@@H]3NC(=O)[C@H](C(C)C)NC(=O)[C@H](CC(C)C)NC(=O)[C@H](CCC(=O)O)NC(=O)[C@@H]4CCCN4C(=O)[C@H](CCCNC(=N)N)NC(=O)[C@H](CSSC[C@H](NC(=O)[C@@H](N)CC(=O)O)C(=O)N[C@@H](CC(C)C)C(=O)NCC(=O)N[C@@H](Cc4ccccc4)C(=O)N[C@@H](CCSC)C(=O)N[C@@H](CCCNC(=N)N)C(=O)N[C@@H](CCCCN)C(=O)N2)NC(=O)[C@H](CSSC[C@@H](C(=O)N[C@@H](CCCCN)C(=O)N[C@@H](Cc2ccc(O)cc2)C(=O)N[C@H](C(=O)N[C@@H](Cc2ccccc2)C(N)=O)C(C)C)NC(=O)[C@H](Cc2c[nH]c4ccccc24)NC(=O)[C@H](CCCCN)NC(=O)[C@H](Cc2cnc[nH]2)NC(=O)[C@H]([C@@H](C)O)NC(=O)[C@H](CCCNC(=N)N)NC(=O)[C@H](CO)NC3=O)NC(=O)[C@H](CCCCN)NC(=O)[C@H](CC(=O)O)NC(=O)[C@H](CC(N)=O)NC(=O)[C@H](CC(=O)O)NC(=O)[C@@H]2CCCN2C1=O` [compound 149] (H-DCLGFMRKCIPDNDKCCRPELVCSRTHKWCKYVF-NH2; disulfide 2-17, 9-23, 16-30): the IC50 is 1020 nM in assay [1] (Use), 1420 nM in assay [2] (Use) and 7490 nM in assay [3] (Use).

For `CC[C@H](C)[C@@H]1NC(=O)[C@@H]2CSSC[C@@H]3NC(=O)[C@H](C(C)C)NC(=O)[C@H](CC(C)C)NC(=O)[C@H](CC(N)=O)NC(=O)[C@@H]4CCCN4C(=O)[C@H](CCCNC(=N)N)NC(=O)[C@H](CSSC[C@H](NC(=O)[C@@H](N)CC(=O)O)C(=O)N[C@@H](CC(C)C)C(=O)NCC(=O)N[C@@H](Cc4ccccc4)C(=O)N[C@@H](CCSC)C(=O)N[C@@H](CCCNC(=N)N)C(=O)N[C@@H](CCCCN)C(=O)N2)NC(=O)[C@H](CSSC[C@@H](C(=O)N[C@@H](CCCCN)C(=O)N[C@@H](Cc2ccc(O)cc2)C(=O)N[C@H](C(=O)N[C@@H](Cc2ccccc2)C(N)=O)C(C)C)NC(=O)[C@H](Cc2c[nH]c4ccccc24)NC(=O)[C@H](CCCCN)NC(=O)[C@H](Cc2cnc[nH]2)NC(=O)[C@H]([C@@H](C)O)NC(=O)[C@H](CCCNC(=N)N)NC(=O)[C@H](CCC(=O)O)NC3=O)NC(=O)[C@H](CCCCN)NC(=O)[C@H](CC(=O)O)NC(=O)[C@H](CC(N)=O)NC(=O)[C@H](CC(=O)O)NC(=O)[C@@H]2CCCN2C1=O` [compound 150] (H-DCLGFMRKCIPDNDKCCRPNLVCERTHKWCKYVF-NH2; disulfide 2-17, 9-23, 16-30), the IC50 came to 6780 nM in assay [1] (Use), 6120 nM in assay [2] (Use) and 11500 nM in assay [3] (Use).

In the case of `CC[C@H](C)[C@@H]1NC(=O)[C@@H]2CSSC[C@@H]3NC(=O)[C@H](C(C)C)NC(=O)[C@H](CC(C)C)NC(=O)[C@H](CC(N)=O)NC(=O)[C@@H]4CCCN4C(=O)[C@H](CCCNC(=N)N)NC(=O)[C@H](CSSC[C@H](NC(=O)[C@@H](N)CC(=O)O)C(=O)N[C@@H](CC(C)C)C(=O)NCC(=O)N[C@@H](Cc4ccccc4)C(=O)N[C@@H](CCSC)C(=O)N[C@@H](CCCNC(=N)N)C(=O)N[C@@H](CCCCN)C(=O)N2)NC(=O)[C@H](CSSC[C@@H](C(=O)N[C@@H](CCCCN)C(=O)N[C@@H](Cc2ccc(O)cc2)C(=O)N[C@H](C(=O)N[C@@H](Cc2ccccc2)C(N)=O)C(C)C)NC(=O)[C@H](Cc2c[nH]c4ccccc24)NC(=O)[C@H](CCCCN)NC(=O)[C@H](Cc2c[nH]cn2)NC(=O)[C@H]([C@@H](C)O)NC(=O)[C@H](CCC(=O)O)NC(=O)[C@H](CO)NC3=O)NC(=O)[C@H](CCCCN)NC(=O)[C@H](CC(=O)O)NC(=O)[C@H](CC(N)=O)NC(=O)[C@H](CC(=O)O)NC(=O)[C@@H]2CCCN2C1=O` [compound 151] (H-DCLGFMRKCIPDNDKCCRPNLVCSETHKWCKYVF-NH2; disulfide 2-17, 9-23, 16-30), the IC50 in assay [1] (Use) is 1170 nM; in assay [2] (Use), 710 nM; in assay [3] (Use) it was 14000 nM.

In the case of `CC[C@H](C)[C@@H]1NC(=O)[C@@H]2CSSC[C@@H]3NC(=O)[C@H](C(C)C)NC(=O)[C@H](CC(C)C)NC(=O)[C@H](CC(N)=O)NC(=O)[C@@H]4CCCN4C(=O)[C@H](CCCNC(=N)N)NC(=O)[C@H](CSSC[C@H](NC(=O)[C@@H](N)CC(=O)O)C(=O)N[C@@H](CC(C)C)C(=O)NCC(=O)N[C@@H](Cc4ccccc4)C(=O)N[C@@H](CCSC)C(=O)N[C@@H](CCCNC(=N)N)C(=O)N[C@@H](CCCCN)C(=O)N2)NC(=O)[C@H](CSSC[C@@H](C(=O)N[C@@H](CCCCN)C(=O)N[C@@H](Cc2ccc(O)cc2)C(=O)N[C@H](C(=O)N[C@@H](Cc2ccccc2)C(N)=O)C(C)C)NC(=O)[C@H](Cc2c[nH]c4ccccc24)NC(=O)[C@H](CCCCN)NC(=O)[C@H](Cc2c[nH]cn2)NC(=O)[C@H]([C@@H](C)O)NC(=O)[C@H](CCCNC(=N)N)NC(=O)[C@H](CO)NC3=O)NC(=O)[C@H](CCCCN)NC(=O)[C@H](CC(=O)O)NC(=O)[C@H](CC(N)=O)NC(=O)[C@H](Cc2cccc3ccccc23)NC(=O)[C@@H]2CCCN2C1=O` [compound 162] (H-DCLGFMRKCIP[1Nal]NDKCCRPNLVCSRTHKWCKYVF-NH2; disulfide 2-17, 9-23, 16-30), the IC50 in assay [1] (Use) was 40 nM; in assay [2] (Use), 60 nM; in assay [3] (Use) it was 9880 nM.
